In article PMC9312206, “Atto488-Agitoxin 2—A Fluorescent Ligand with Increased Selectivity for Kv1.3 Channel Binding Site” (Bioengineering, 2022):
Entries after “also recorded” stand apart in the source; their conditions may differ. Read-outs that look alike come from different tables or passages of the source.

How the values were obtained:
[1] = test system: KcsA–Kv1.3 (Kv1.3 binding site); experiment: Competitive binding: displacement of A-AgTx2 from KcsA–Kv1.3 on E. coli spheroplasts; settings: 1 h at 37 °C, pH 8.0; for displacement of A-AgTx2 from complexes with KcsA–Kv1.3 by peptide blockers (in words): tested AgTx2 0.4–50 nM, KTx1 0.04–2.5 nM, ChTx 10 nM, averaged over 3 independent experiments; for Kd: competition with A-AgTx2 10 nM, Kap = IC50/(1 + [L]/[Kd]), mean ± SEM, three independent measurements, read-out: apparent dissociation constant (Kap)
Description: (§1) E. coli spheroplasts expressing KcsA or chimeric KcsA–Kv1.x (x = 1, 3, 6) channels were prepared according to the previously developed protocol. Briefly, E. coli BL21 (DE3) cells (Novagen, Merck, Darmstadt, Germany), transformed either with the pET28a-KcsA, the pET28a-KcsA–Kv1.1, or the pET28a-KcsA–Kv1.3 plasmid, were cultivated in a minimal M9 medium at 37 °C up to OD560 = 0.8 optical units per cm (o.u./cm), induced with 50 μM isopropyl β-D-1-thiogalactopyranoside, and further grown at 37 °C for 20 h. The cells transformed with pET28a-KcsA–Kv1.6 were grown at 25 °C for 28 h after induction. To prepare the spheroplasts, cells were harvested by centrifugation (5000× g, 10 min, 4 °C), incubated in buffer A (10 mM Tris–HCl, pH 8.0, 0.5 M sucrose) containing lysozyme (20 μg/mL) for 7 min on ice, then diluted twofold with buffer B (10 mM Tris–HCl, pH 8.0, 0.3 mM ethylenediamine tetraacetic acid) and further incubated for 20 min. Finally, the spheroplasts (OD560 ≈ 0.5 o.u./cm) were stabilized by the addition of MgCl2 (10 mM) and stored at 4 °C.
(§2) All the experiments were performed in a buffer containing 50 mM Tris-HCl (pH 8.0), 4 mM KCl, 50 mM NaCl, 10 mM MgCl2, 0.3 mM EDTA, 250 mM sucrose, and 0.1% bovine serum albumin. In the binding experiments, the spheroplasts (1000 cells/μL) were incubated with different concentrations of A-AgTx2 (0.16–20 or 100 nM) or AgTx2-GFP (4 or 50 nM) for 1 h at 37 °C. In the competitive binding experiments, the spheroplasts were incubated with A-AgTx2 (10 nM) and with one of the following compounds for 1 h at 37 °C: AgTx2 (0.4–50 nM), KTx1 (0.04–2.5 nM), ChTx (10 nM), ScyTx (5 µM), tetraethylammonium (TEA, 10 mM).
(§3) After incubation with ligands, the spheroplasts were placed in a 12-well flexiPERM silicon chamber (Perbio, Aalst, Belgium) attached to a thin (0.15 mm) cover glass and were centrifuged at 200× g for 5 min to immobilize the spheroplasts to a cover glass. The microscopy studies were carried out with a laser scanning confocal microscope LSM 710 (Zeiss, Oberkochen, Germany) using the α Plan-Apochromat 100×/1.46 oil immersion objective. Fluorescence of A-AgTx2 and AgTx2-GFP was excited at the 488 nm wavelength and recorded in the 495–590 nm range, at a 0.25 μm lateral and ca. 1.5 μm axial resolution. Image J software (National Institutes of Health, Bethesda, MD, USA) was used to treat the images and define the fluorescence intensity of the ligand bound to each measured spheroplast and the average fluorescence intensity Ia of the bound fluorescent ligand (mean ± SEM, n = 130–230 cells per point).
The apparent dissociation constant (Kap) of non-labeled ligands (AgTx2, KTx1) was calculated using the data of competition binding experiments according to the procedure described elsewhere with the following equation: Kap = IC50/(1 + [L]/[Kd])(2) where [L] is a concentration of A-AgTx2 (10 nM), IC50 is the concentration of a non-labeled ligand that displaces 50% of A-AgTx2 from the complex with KcsA–Kv1.3. Kap was introduced instead of Kd to emphasize an indirect method (the competitive binding experiment) for its determination.
(§4) The Kd and Kap values from three independent measurements were averaged and presented as mean ± SEM.

[2] = test system: spheroplasts prepared from non-transformed cells; experiment: Direct binding of fluorescent ligand to control spheroplasts from non-transformed cells (plasma membrane); design: species or system E. coli BL21 (DE3); settings: A-AgTx2 100 nM
Description: (§5) E. coli spheroplasts expressing KcsA or chimeric KcsA–Kv1.x (x = 1, 3, 6) channels were prepared according to the previously developed protocol. Briefly, E. coli BL21 (DE3) cells (Novagen, Merck, Darmstadt, Germany), transformed either with the pET28a-KcsA, the pET28a-KcsA–Kv1.1, or the pET28a-KcsA–Kv1.3 plasmid, were cultivated in a minimal M9 medium at 37 °C up to OD560 = 0.8 optical units per cm (o.u./cm), induced with 50 μM isopropyl β-D-1-thiogalactopyranoside, and further grown at 37 °C for 20 h. The cells transformed with pET28a-KcsA–Kv1.6 were grown at 25 °C for 28 h after induction. […]
as §3, with “The microscopy studies were carried out with a laser scanning confocal microscope LSM 710 (Zeiss, Oberkochen, Germany) using the α Plan-Apochromat 100×/1.46 oil immersion objective.” left out

[3] = test system: KcsA; experiment: Direct binding of fluorescent ligand to control spheroplasts expressing KcsA; settings: A-AgTx2 100 nM
Description: as §5
as §3, with “The microscopy studies were carried out with a laser scanning confocal microscope LSM 710 (Zeiss, Oberkochen, Germany) using the α Plan-Apochromat 100×/1.46 oil immersion objective.” left out

[4] = test system: KcsA–Kv1.1 (Kv1.1 binding site); experiment: Direct binding of fluorescent ligand to hybrid KcsA–Kv1.1 on E. coli spheroplasts, confocal microscopy; settings: A-AgTx2 100 nM, 1 h at 37 °C, pH 8.0
Description: as §5
as §3, with “The microscopy studies were carried out with a laser scanning confocal microscope LSM 710 (Zeiss, Oberkochen, Germany) using the α Plan-Apochromat 100×/1.46 oil immersion objective.” left out

[5] = test system: KcsA–Kv1.6 (Kv1.6 binding site); experiment: Direct binding of fluorescent ligand to hybrid KcsA–Kv1.6 on E. coli spheroplasts, confocal microscopy; settings: A-AgTx2 100 nM, 1 h at 37 °C, pH 8.0
Description: as §5
as §3, with “The microscopy studies were carried out with a laser scanning confocal microscope LSM 710 (Zeiss, Oberkochen, Germany) using the α Plan-Apochromat 100×/1.46 oil immersion objective.” left out

[6] = test system: KcsA–Kv1.3 (Kv1.3 binding site); experiment: Direct binding of fluorescent ligand to hybrid KcsA–Kv1.3 on E. coli spheroplasts, confocal microscopy
Description: as §1, with “°C. To obtain spheroplasts from non-transformed cells, E. coli BL21 (DE3) cells were subjected to similar growth, induction, and treatment procedures.” for “°C.”
as §2, §3
The dissociation constants (Kd) of complexes between A-AgTx2 and KcsA–Kv1.3 were defined by fitting the experimental dependencies of Ia onto the concentration L of A-AgTx2 with the following equation:Ia ([L]) = Ias [L]/(Kd + [L])(1) where Ias is the Ia value when the A-AgTx2 binding is saturated.
as §4

[7] = test system: Kv1.1 channel; settings: cited from earlier work
Text: (§6) Differences between two labeled derivatives include the position of a label (carboxytetramehylrhodamine was located at the C-terminus of AgTx2 [11]), the number of charges, and the total charge at the labels. Atto488 bears two negatively and one positively charged groups (Figure 1C), while carboxytetramehylrhodamine bears one negative charge and one positive charge. It can be s ... || (+ 1 further places)

[8] = test system: Kv1.6 channel; settings: cited from earlier work
Text: as §6

[9] = test system: Kv1.3 channel; settings: cited from earlier work
Text: High-affinity and genetically ... || Interactions of A-AgTx2 with the Kv1.3 binding site were further characterized using known small organic molecule (TEA) and peptide blockers (ChTx, KTx1, AgTx2) of the Kv1.3 channel.

[10] = molecular target: KcsA–Kv1.3; settings: estimated previously; ref [15]; read-out: apparent dissociation constant, KcsA–Kv1.3-bearing spheroplasts and GFP-tagged AgTx2 ligand; cited from earlier work
Description: Since the bioengineering system based on KcsA–Kv1.3-bearing spheroplasts is suitable for the quantitative analysis of the affinity of unlabeled pore blockers by measuring the competitive binding of the fluorescent ligand and the compound under study, we tested A-AgTx2 in such an analysis (Figure 4C). […] The concentrations of AgTx2 and KTx1 displacing 50% of A-AgTx2, which were determined from the measured dependences, made it possible to calculate the apparent dis ...

[11] = molecular target: Kv1.3 channel; settings: read-out: Kd, electrophysiological studies, cited from earlier work
[12] = test system: Shaker K^+ channel; settings: ref [1]; cited from earlier work
Text: The toxin contains a triple-stranded antiparallel β-sheet with two outer strands—S1 (Val2-Cys8) and S2 (Arg24-Met29)—and the central strand S3 (Lys32—Thr ...

[13] = test system: KCa2.3 channel; settings: ref [18]; cited from earlier work
[14] = test system: KCa2.2 channel; settings: ref [18]; cited from earlier work
[15] = test system: KCa2.1 channel; settings: ref [18]; cited from earlier work

CC[N+](CC)(CC)CC [TEA, tetraethylammonium]
displacement of A-AgTx2 from complexes with KcsA–Kv1.3 by TEA (in words) ([1]; A-AgTx2 10 nM, TEA 10 mM): accomplished this at millimolar concentrations

Atto488-agitoxin 2 [A-AgTx2]
non-specific ligand binding to plasma membrane (in words) [2]: very low | non-specific ligand binding to the KcsA channel scaffold (in words) [3]: very low | binding of A-AgTx2 to KcsA–Kv1.1 / Kv1.1 binding site (in words) [4]: lose affinity for the Kv1.1 and Kv1.6 binding sites; also recorded: does not stain spheroplasts presenting KcsA–Kv1.1 or KcsA–Kv1.6; also recorded: inability of A-AgTx2 to interact with the Kv1.1 and Kv1.6 binding sites | binding of A-AgTx2 to KcsA–Kv1.6 / Kv1.6 binding site (in words) [5]: lose affinity for the Kv1.1 and Kv1.6 binding sites; also recorded: does not stain spheroplasts presenting KcsA–Kv1.1 or KcsA–Kv1.6; also recorded: inability of A-AgTx2 to interact with the Kv1.1 and Kv1.6 binding sites | affinity for the Kv1.3 binding site compared to the unlabeled AgTx2 (in words) [6]: decreased as compared to the unlabeled AgTx2 | binding of A-AgTx2 to spheroplasts expressing KcsA–Kv1.3 (in words) ([6]; A-AgTx2 20 nM, 1 h at 37 °C, pH 8.0): effectively binds to spheroplasts expressing KcsA–Kv1.3 | Kd ([6]; A-AgTx2 0.16–20 nM, 1 h at 37 °C, pH 8.0, 4 mM KCl, 50 mM NaCl, 0.1% BSA, mean ± SEM, n = 3, read-out: dissociation constant (Kd) of complexes with KcsA–Kv1.3): 3.9 ± 0.2 nM | intensity of fluorescence detected from KcsA–Kv1.3-bearing spheroplasts relative to control spheroplasts (higher than) ([6]; A-AgTx2, control: spheroplasts expressing KcsA or not expressing heterologous channels, difference preserved with controls at fivefold higher A-AgTx2 concentration): fifty | selectivity toward Kv1.3 as compared to the Kv1.1 and Kv1.6 binding sites (in words) ([6]; in contrast to non-modified AgTx2): considerably increased selectivity toward Kv1.3

R-AgTx2: AgTx2 labeled with carboxytetramethylrhodamine at Lys38
affinity for Kv1.1 binding site (in words) ([7]; ref [11],[12],[13]): nanomolar affinity | affinity for Kv1.6 binding site (in words) ([8]; ref [11],[12],[13]): nanomolar affinity | affinity for Kv1.3 binding site (in words) ([9]; ref [11],[12],[13]): nanomolar affinity

agitoxin 2 [AgTx2]
inhibition of Kv1.1 (in words) ([7]; mammalian channel, ref [1]): high-affinity inhibitor | inhibition of Kv1.6 (in words) ([8]; mammalian channel, ref [1]): high-affinity inhibitor | Kd [10]: 0.23 nM | Kd ([11]; ref [19]): 2 nM | inhibition of Shaker K^+ channel (in words) [12]: high-affinity inhibitor | displacement of A-AgTx2 from complexes with KcsA–Kv1.3 by peptide blockers (in words) ([1]; A-AgTx2 10 nM): displaced A-AgTx2 from the complexes with KcsA–Kv1.3 at nanomolar concentrations | Kd [1]: 0.54 ± 0.11 nM | inhibition of Kv1.3 (in words) ([9]; mammalian channel, ref [1]): high-affinity inhibitor

charybdotoxin [ChTx]
displacement of A-AgTx2 from complexes with KcsA–Kv1.3 by peptide blockers (in words) ([1]; A-AgTx2 10 nM): displaced A-AgTx2 from the complexes with KcsA–Kv1.3 at nanomolar concentrations

kaliotoxin-1 [KTx1]
Kd [10]: 0.1 nM | Kd ([11]; ref [20]): 0.1 nM | displacement of A-AgTx2 from complexes with KcsA–Kv1.3 by peptide blockers (in words) ([1]; A-AgTx2 10 nM): displaced A-AgTx2 from the complexes with KcsA–Kv1.3 at nanomolar concentrations | Kd [1]: 0.06 ± 0.02 nM

scyllatoxin (AFCNLRMCQLSCRSLGLLGKCIGDKCECVKH; UniProt P16341 1-31, looked up) [ScyTx]
block of KCa2.3 (in words) [13]: blocks the KCa2.1, KCa2.2, and KCa2.3 channels | displacement of A-AgTx2 from complexes with KcsA–Kv1.3 by control peptide (in words) ([1]; A-AgTx2 10 nM, ScyTx 5 µM): did not disturb the complexes of A-AgTx2 with KcsA–Kv1.3 | block of KCa2.2 (in words) [14]: blocks the KCa2.1, KCa2.2, and KCa2.3 channels | block of KCa2.1 (in words) [15]: blocks the KCa2.1, KCa2.2, and KCa2.3 channels | interaction with Kv1.3 (in words) ([9]; stated as known, ref [18]): does not interact with Kv1.3
